In paper PMC6631223, “Chain-Branched Polyhydroxylated Octahydro-1H-Indoles as Potential Leads against Lysosomal Storage Diseases” (Pharmaceuticals, 2019):

Tests used:
Type in all cases: biochemical
[1] = biological target: T1, α-Mannosidase (jack bean) (Canavalia ensiformis, UniProt C0HJB3); experiment: Glycosidase inhibition: α-mannosidase (jack bean)
T1 construct: purchased Sigma-Aldrich Co
T1 sequence (C0HJB3 1-981): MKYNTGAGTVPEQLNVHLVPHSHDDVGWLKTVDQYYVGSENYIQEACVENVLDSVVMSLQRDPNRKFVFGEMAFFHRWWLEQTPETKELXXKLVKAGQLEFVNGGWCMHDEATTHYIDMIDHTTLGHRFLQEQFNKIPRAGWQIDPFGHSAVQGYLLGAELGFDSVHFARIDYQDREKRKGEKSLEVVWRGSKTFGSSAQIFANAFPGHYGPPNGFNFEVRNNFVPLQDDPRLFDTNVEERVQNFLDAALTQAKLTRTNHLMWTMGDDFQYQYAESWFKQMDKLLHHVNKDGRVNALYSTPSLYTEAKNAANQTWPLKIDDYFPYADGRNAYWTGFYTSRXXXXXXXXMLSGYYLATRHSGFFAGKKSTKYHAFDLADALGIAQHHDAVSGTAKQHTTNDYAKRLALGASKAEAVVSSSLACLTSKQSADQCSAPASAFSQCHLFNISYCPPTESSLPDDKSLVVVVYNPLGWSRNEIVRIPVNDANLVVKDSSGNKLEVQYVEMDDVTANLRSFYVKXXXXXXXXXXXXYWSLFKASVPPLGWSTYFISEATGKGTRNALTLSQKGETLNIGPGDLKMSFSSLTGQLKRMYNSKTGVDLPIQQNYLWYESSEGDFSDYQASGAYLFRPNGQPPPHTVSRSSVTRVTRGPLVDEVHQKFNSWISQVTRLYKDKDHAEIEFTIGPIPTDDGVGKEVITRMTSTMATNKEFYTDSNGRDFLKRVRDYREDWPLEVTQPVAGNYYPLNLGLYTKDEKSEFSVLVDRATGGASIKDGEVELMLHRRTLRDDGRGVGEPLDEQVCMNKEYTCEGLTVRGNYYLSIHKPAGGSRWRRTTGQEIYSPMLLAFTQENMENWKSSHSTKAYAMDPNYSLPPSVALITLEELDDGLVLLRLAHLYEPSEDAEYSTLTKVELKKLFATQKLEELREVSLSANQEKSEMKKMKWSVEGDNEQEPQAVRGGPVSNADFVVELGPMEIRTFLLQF
Excerpt: (§1) The enzymes α-glucosidase (from yeast, rice), β-glucosidase (from almonds, bovine liver), α-galactosidase (from coffee beans), β-galactosidase (from bovine liver), α-mannosidase (from jack beans), β-mannosidase (from snails), α-L-fucosidase (from bovine kidney), α-L-rhamnosidase (from Penicillium decumbens), β-glucuronidases (from Escherichia coli), α,α-trehalase (from porcine kidney), amyloglucosidase (from Aspergillus niger), p-nitrophenyl glycosides, and various disaccharides were purchased from Sigma-Aldrich Co. Brush border membranes were prepared from the rat small intestine according to the method of Kessler et al., and were assayed at pH 6.8 for rat intestinal maltase using maltose. For rat intestinal glucosidases and porcine kidney trehalase activities, the reaction mixture (0.2 mL) contained 25 mM substrate and the appropriate amount of enzyme, and the incubations were performed for 10 min at 37 °C. The reaction was stopped by heating at 100 °C for 3 min. […] The absorbance at 505 nm was measured to determine the amount of the released D-glucose. Other glycosidase activities were determined using an appropriate p-nitrophenyl glycoside as substrate at the optimum pH of each enzyme. […] The released p-nitrophenol was measured spectrometrically at 400 nm.

[2] = biological target: T2, α,α-Trehalase (porcine kidney) (Sus scrofa, UniProt I3LIR5); experiment: Glycosidase inhibition: α,α-trehalase (porcine kidney); conditions: read-out: inhibition % at 1000 μM
T2 construct: purchased Sigma-Aldrich Co; host or cells: porcine kidney
T2 sequence (I3LIR5 24-583): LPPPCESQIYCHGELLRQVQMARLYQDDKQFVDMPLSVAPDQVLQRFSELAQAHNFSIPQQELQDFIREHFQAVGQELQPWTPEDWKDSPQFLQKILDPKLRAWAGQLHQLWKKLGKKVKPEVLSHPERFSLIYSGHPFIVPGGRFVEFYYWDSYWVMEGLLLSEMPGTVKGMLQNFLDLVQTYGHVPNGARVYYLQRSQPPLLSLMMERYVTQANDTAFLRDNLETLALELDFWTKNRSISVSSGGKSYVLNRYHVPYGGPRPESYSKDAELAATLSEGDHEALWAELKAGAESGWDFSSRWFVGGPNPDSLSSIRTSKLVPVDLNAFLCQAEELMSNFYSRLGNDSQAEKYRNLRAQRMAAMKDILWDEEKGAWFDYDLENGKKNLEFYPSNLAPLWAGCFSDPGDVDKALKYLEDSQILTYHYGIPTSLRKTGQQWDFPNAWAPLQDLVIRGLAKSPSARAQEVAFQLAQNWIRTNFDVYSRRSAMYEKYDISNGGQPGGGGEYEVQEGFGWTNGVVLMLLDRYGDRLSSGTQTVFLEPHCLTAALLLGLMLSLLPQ
Excerpt: as §1

[3] = biological target: T3, β-Glucosidase (bovine liver) (Bos taurus, UniProt F1MNT6); experiment: Glycosidase inhibition: β-glucosidase (bovine liver)
T3 sequence (F1MNT6 1-469): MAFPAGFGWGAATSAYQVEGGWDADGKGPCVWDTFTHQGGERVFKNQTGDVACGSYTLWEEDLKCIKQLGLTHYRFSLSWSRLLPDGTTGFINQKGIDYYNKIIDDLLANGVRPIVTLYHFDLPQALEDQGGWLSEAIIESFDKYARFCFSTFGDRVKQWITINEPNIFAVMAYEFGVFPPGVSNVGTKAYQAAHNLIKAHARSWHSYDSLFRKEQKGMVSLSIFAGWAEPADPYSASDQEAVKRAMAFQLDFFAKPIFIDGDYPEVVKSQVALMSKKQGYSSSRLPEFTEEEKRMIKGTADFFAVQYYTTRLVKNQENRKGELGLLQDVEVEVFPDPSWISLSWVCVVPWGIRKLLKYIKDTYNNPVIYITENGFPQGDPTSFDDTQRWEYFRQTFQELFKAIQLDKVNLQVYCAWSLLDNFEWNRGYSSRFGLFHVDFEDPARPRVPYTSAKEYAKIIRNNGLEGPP
Excerpt: as §1

| Compound | inhibition at 1000 µM [1] [%] | inhibition at 1000 µM [2] [%] | inhibition at 1000 µM [3] [%] |
| --- | --- | --- | --- |
| CC[C@@H]1CN[C@H]2C[C@@H](O)[C@H](O)[C@@H](O)[C@H]12 [Compound 10, (3S,3aR,4S,5S,6R,7aS)-3-Ethyloctahydro-1H-indole-4,5,6-triol] | 0 | 0 | 0 |
| CC[C@H]1CN[C@H]2C[C@@H](O)[C@H](O)[C@@H](O)[C@H]12 [Compound 13, (3R,3aR,4S,5S,6R,7aS)-3-ethyloctahydro-1H-indole-4,5,6-triol] | 0 | 0 | 21.7 |
